The record followed here is patent publication US20250127790A1, “COMBINATION THERAPY USING VPS34 INHIBITORS” (Deciphera Pharmaceuticals, LLC, priority 2021, published 2025).

The test system of assay [1] is Renca renal cell carcinoma cells. The assay can be described thus: qRT-PCR, combination with ADU-S100, Renca cells. Format: cell-based, Mouse. To be noted: for IFNB1 mRNA expression: 2 μM Compound 1, 10 μM ADU-S100, 4 h; for CCL5 mRNA expression / CXCL10 mRNA expression: 2 μM Compound 1, 10 μM ADU-S100, 24 h; for increase in IFNB1, CCL5 and CXCL10 with siRNA knockdown of STING: siSTING. How it is done:
Renca cells were grown in RPMI-1640 medium containing 10% fetal bovine serum. Cells were then incubated for 2 days at 37 degrees Celsius, 5% CO2, and 95% humidity. Renca cells were reversely transfected with scrambled siRNA control (siSCR) or siRNA targeting STING (siSTING). After transfection for 48 h, cells were treated with DMSO control, 2 μM Compound 1 or 2 μM Compound 2 in combination with 10 μM ADU-S100 for 4 h (for Ifnb1) or 24 h (Ccl5 and Cxcl10). Cells were washed with PBS and RNA was isolated using the PureLink RNA kit (#12183018A, Thermo Fisher Scientific) according to the manufacturer's protocol. Genomic DNA was removed using DNA-binding columns (RNeasy plus kit, #74134, Qiagen) and/or DNase treatment (#12185010, Thermo Fisher Scientific). RNA was quantified using NanoDrop (Thermo Fisher Scientific) and 50 ng/μL RNA was used for cDNA synthesis with SuperScript IV VILO Master Mix (#11756050, Thermo Fisher Scientific). Quantitative RT-PCR (qRT-PCR) was run with diluted cDNA (1:25 or 1:12.5), PowerUp SYBR Green Master Mix (#A25741, Thermo Fisher Scientific), and 200 nM primers (see below) on a CFX Connect RT-PCR system (BioRad). Data was analyzed using the ΔΔCT method. Results are mean±SEM of three independent experiments.
(In general: Quantitative PCR measures a nucleic acid by following its amplification.)

The test system is the same in assay [2]. Nature of the assay: IncuCyte live-cell imaging, Caspase 3/7 activity, Renca cells. Format: cell-based. The note with it: 2 μM Compound 1, ADU-S100, 24 hours. How it is done:
Renca cells were treated with a combination of DMSO or 2 μM Compound 1 alone or in combination with STING agonist ADU-S100 for 24 hours. Treatment with 1 μM staurosporine was used as a positive control for apoptosis induction. To assess cell proliferation, 1000 cells/well were plated in 96-well plates. After 24 h, cells were treated with compounds in 100 μL complete medium. Phase-contrast images (10×) were acquired every 3 h for 24-72 h and cell confluence (%) was calculated using the IncuCyte S3 live-cell analysis system (Sartorius). For monitoring apoptosis, 5 μM of IncuCyte Caspase-3/7 Green Dye (#4440, Sartorius) was added to the medium at the time of treatment. Both phase-contrast and green fluorescent images were captured. Caspase 3/7 induction was calculated by counting green fluorescent objects per mm^2 and dividing it by the percentage of cell confluency.

In assay [3] the test system is 786-O renal cell carcinoma cells. The assay can be described thus: qRT-PCR with siRNA knockdown of STING pathway genes, 786-O cells. Format: cell-based, Human. The note with it: 2 μM, 24 h. How it is done: (§1) Quantitative reverse-transcriptase polymerase chain reaction (RT-PCR) assay 786-O cells were grown in RPMI-1640 medium containing 10% fetal bovine serum. Cells were then incubated for 2 days at 37 degrees Celsius, 5% CO2, and 95% humidity. A498 cells were transfected with scrambled siRNA control (siSCR) or siRNA targeting TBK1 (siTBK1), STING (siSTING) or CGAS (siCGAS). After 48 h cells were treated with DMSO or 2 μM of VPS34 inhibitor (Compound 1 or Compound 2) for 24 h. Cells were washed with PBS and RNA was isolated using the PureLink RNA kit (#12183018A, Thermo Fisher Scientific) according to the manufacturer's protocol. Genomic DNA was removed using DNA-binding columns (RNeasy plus kit, #74134, Qiagen) and/or DNase treatment (#12185010, Thermo Fisher Scientific). RNA was quantified using NanoDrop (Thermo Fisher Scientific) and 50 ng/μL RNA was used for cDNA synthesis with SuperScript IV VILO Master Mix (#11756050, Thermo Fisher Scientific). Quantitative RT-PCR (qRT-PCR) was run with diluted cDNA (1:25 or 1:12.5), PowerUp SYBR Green Master Mix (#A25741, Thermo Fisher Scientific), and 200 nM primers (see below) on a CFX Connect RT-PCR system (BioRad). Data was analyzed using the ΔΔCT method. Results are mean±SEM of three independent experiments.

Assay [4] relates to A-498 renal cell carcinoma cells. Nature of the assay: Cytokine secretion assay (MSD) with siRNA knockdown, A-498 cells. Format: cell-based, human. The note with it: 24 h; for CCL5 and CXCL10 secretion with siRNA knockdown of CGAS: siCGAS; for CCL5 and CXCL10 secretion with siRNA knockdown of CGAS / increase in CCL5 protein secretion / increase in CXCL10 protein secretion / CCL5 and CXCL10 protein secretion with siRNA knockdown of STING: 2 μM; for CCL5 and CXCL10 secretion with siRNA knockdown of CGAS / CCL5 and CXCL10 protein secretion with siRNA knockdown of STING / CCL5 or CXCL10 protein secretion with siRNA knockdown of TBK1: vs compound alone; for increase in CCL5 protein secretion / increase in CXCL10 protein secretion: siRNA against non-specific controls (siSCR); for CCL5 and CXCL10 protein secretion with siRNA knockdown of STING: siSTING; for CCL5 or CXCL10 protein secretion with siRNA knockdown of TBK1: siTBK1, 2 μM. How it is done:
A-498 cells were transfected with scrambled siRNA control (siSCR) or siRNA targeting TBK1 (siTBK1), STING (siSTING) or CGAS (siCGAS). After 48 h cells were treated with DMSO or 2 μM of VPS34 inhibitor (Compound 1 or Compound 2) for 24 h. Cell culture medium was centrifuged at 1600 rpm for 10 min at 4° C. and obtained supernatant stored at −80° C. Cytokine levels were quantified using following Meso Scale Discovery (MSD) assays: human R-PLEX RANTES/CCL5 (#F21ZN), U-PLEX CXCL10/IP-10 (#K151UFK). Assays were run on the SECTOR Quickplex Imager and analyzed using Discovery Workbench version 4.0 (MSD).

Another assay has as its system Me30966 melanoma cells. Nature of the assay: qRT-PCR with siSTING, Me30966 cells. Format: cell-based, Human. The note with it: 2 μM, 24 h; for increase in CCL5 mRNA expression / increase in CXCL10 mRNA expression / increase in IFNB1 mRNA expression: siSCR. How it is done: as §1, with “Me30966 cells” for “Quantitative reverse-transcriptase polymerase chain reaction (RT-PCR) assay 786-O cells were grown in RPMI-1640 medium containing 10% fetal bovine serum. Cells were then incubated for 2 days at 37 degrees Celsius, 5% CO2, and 95% humidity. A498 cells”, “with siSCR” for “with scrambled siRNA control (siSCR)”, “or siSTING.” for “or siRNA targeting TBK1 (siTBK1), STING (siSTING) or CGAS (siCGAS).”, “48 h,” for “48 h”, “VPS34 inhibitors” for “VPS34 inhibitor”

Consider `Nc1ncnc2c1ncn2[C@@H]1O[C@@H]2COP(=O)([S-])O[C@@H]3[C@H](O)[C@@H](COP([O-])(=S)O[C@H]2[C@H]1O)O[C@H]3n1cnc2c(N)ncnc21.[Na+].[Na+]` (stereo partly shown) [ADU-S100, reference compound], for which, in assay [1], the “IFNB1 mRNA expression” value is “increased”; the “CCL5 mRNA expression” value was “increased”; the “CXCL10 mRNA expression” value is “increased”; the “increase in IFNB1, CCL5 and CXCL10 with siRNA knockdown of STING” value is “blocked”. The “Caspase 3/7 activity” value in assay [2] is on record as “mild effects”.
As to `C[C@@H]1COCCN1c1cc(N2CCCC[C@@H]2C(F)(F)F)[nH]c(=O)c1` [Compound 1, 4-((R)-3-methylmorpholino)-6-((R)-2-(trifluoromethyl)piperidin-1-yl)pyridin-2(1H)-one], in assay [1], the “IFNB1 mRNA expression” value is “did not significantly increase”; the “CCL5 mRNA expression” value is recorded as “did increase”; the “CXCL10 mRNA expression” value is recorded as “did increase”; the “increase in IFNB1, CCL5 and CXCL10 with siRNA knockdown of STING” value is on record as “blocked”. Also, in assay [3], the “increase in mRNA expression of CCL5” value is recorded as more than 3 fold, the “increase in mRNA expression of CXCL10” value is approximately 5 fold, the “increase in mRNA expression of IFNB1” value is reported as more than 5 fold and the “increase in mRNA expression of IRF7” value is more than 2 fold. In addition, in assay [2], the “Caspase 3/7 activity” value is given as “increased”. Moreover, in assay [4], the “CCL5 and CXCL10 secretion with siRNA knockdown of CGAS” value is given as “down to the levels of DMSO controls”; the “increase in CCL5 protein secretion” value is approximately 2 fold; the “increase in CXCL10 protein secretion” value is on record as approximately 2 fold; the “CCL5 and CXCL10 protein secretion with siRNA knockdown of STING” value is reported as “down to the levels of DMSO controls”. Besides, the “CCL5 or CXCL10 protein secretion with siRNA knockdown of TBK1” value in assay [4] is “non-significant changes”. For the same compound, in the assay with Me30966 melanoma cells, the “increase in CCL5 mRNA expression” value is reported as approximately 10 fold, the “increase in CXCL10 mRNA expression” value is approximately 10 fold, the “increase in IFNB1 mRNA expression” value is approximately 5 fold and the “CCL5 mRNA increase with siSTING” value is listed as “abolished”. Moreover, in the assay on Me30966 melanoma cells, the “CXCL10 mRNA increase with siSTING” value was “abolished” and the “IFNB1 mRNA increase with siSTING” value is listed as “abolished”.
As to `C[C@@H]1COCCN1c1cc(=O)n2c(n1)N(Cc1cncc(Cl)c1)[C@H](C(F)(F)F)CC2` [Compound 2, (S)-9-((5-chloropyridin-3-yl)methyl)-2-((R)-3-methylmorpholino)-8-(trifluoromethyl)-6,7,8,9-tetrahydro-4H-pyrimido[1,2-a]pyrimidin-4-one], in assay [3], the “increase in mRNA expression of CCL5” value is listed as approximately 4 fold, the “increase in mRNA expression of CXCL10” value was approximately 5 fold, the “increase in mRNA expression of IFNB1” value is approximately 4 fold and the “increase in mRNA expression of IRF7” value is listed as approximately 3 fold. Besides, in assay [4], the “CCL5 and CXCL10 secretion with siRNA knockdown of CGAS” value is given as “down to the levels of DMSO controls”; the “increase in CCL5 protein secretion” value was approximately 2 fold; the “increase in CXCL10 protein secretion” value is recorded as approximately 2 fold; the “CCL5 and CXCL10 protein secretion with siRNA knockdown of STING” value was “down to the levels of DMSO controls”. Besides, the “CCL5 or CXCL10 protein secretion with siRNA knockdown of TBK1” value in assay [4] is on record as “non-significant changes”. Further, in the assay on Me30966 melanoma cells, the “increase in CCL5 mRNA expression” value is on record as approximately 10 fold, the “increase in CXCL10 mRNA expression” value is recorded as approximately 10 fold, the “increase in IFNB1 mRNA expression” value is on record as approximately 5 fold and the “CCL5 mRNA increase with siSTING” value is on record as “abolished”. Besides, in the assay with Me30966 melanoma cells, the “CXCL10 mRNA increase with siSTING” value is recorded as “abolished” and the “IFNB1 mRNA increase with siSTING” value is recorded as “abolished”.
